Reference: publication PMC12650660, “Novel Synthetic Strategies Towards Analogues of Cadaside and Malacidin Antibiotic Peptides” (Biomolecules, 2025)
≈ marks a conversion by molar mass, not a printed value. Entries after “also recorded” stand apart in the source; their conditions may differ. Like-named read-outs stand apart in the source and are kept apart here. Numbered stars: 1 amine (or outer) side, 2 acyl side, 3 side chain; on linkers, the order of the positions; unused ones are H or OH. Bridge positions count the residues as written; N and C are the ends. Square brackets hold non-standard residues; d marks the D form. Peptide text beside a SMILES is read from it. * marks the point of attachment. β2hAla(R) = C[C@H](CN[*:1])C(=O)[*:2]; Decanoyl = CCCCCCCCCC(=O)*; Sar = CNCC(=O)O

Assays:
[1] = system: B. subtilis 168; type: cell-based
Description: MICs were measured in triplicate by microbroth dilution. An overnight culture of B. subtilis 168 (DSMZ German Collection of Microorganisms and Cell Cultures GmbH) was inoculated at 5 × 10^5 CFU/mL in cation-adjusted Mueller–Hinton broth (MHB II) with or without 15 mM or 100 mM CaCl2. Serial two-fold peptide dilutions (128 - 1 µg/mL for analogues and 16 - 0.25 µg/mL for daptomycin) were incubated in polypropylene U-bottom 96-well plates (200 µL final volume) at 37 °C for 24 h. MIC was the lowest concentration at which no growth was observed. Optical density measurements at 620 nm were performed using a Thermo Scientific Multiskan FC (Thermo Fisher Scientific Inc., Paisley, UK). MIC was determined from the lowest concentration at which no tubidity was observed, using an untreated positive growth control, and a broth-only sterility control as references.

[2] = TLC precursor-binding assay with lipid II; design: key to Lipid II (TLC binding): “+” indicates binding confirmed; “-” indicates no binding; “~” indicates potential binding with absence of precursor band; conditions: for Lipid II (TLC binding): peptide 0.5, 1, 2 equiv. (nisin 0.1, 0.5, 1 equiv.) with lipid II in Tris·HCl pH 7.5, 50 mM CaCl2, 1 h, silica TLC
Description: (§1) Lipid II and undecaprenyl phosphate (C55-P) (1 equiv., 30 µL) in Tris•HCl buffer (0.2% Triton X-100, 26 mM MgCl2, and 50 mM CaCl2 at pH 7.5) were incubated with the peptides (0.5, 1, 2 equiv.) or nisin (0.1, 0.5, 1 equiv.) in 30 µL water for 1 h. The reaction was then extracted with ^tBuOH/6 M PyOAc (2/1 v/v, 100 µL) and the organic phase was dried using an Eppendorf vacuum centrifuge 5301 (Fisher Scientific, Loughborough, UK) under reduced pressure. The solid was redissolved in CHCl3/MeOH (1/1 v/v, 30–60 µL) for spotting onto the TLC plates. In addition to the peptide–lipid mixtures, a control of each peptide/nisin with 30 µL buffer, and a control of each lipid with 30 µL HPLC-grade water were also incubated and subjected to the same workup. Silica TLC plates were run in a CHCl3/MeOH/H2O/NH3 (88/48/10/1 v/v) solvent system and stained using iodine vapour, phosphomolybdic acid (PMA), or KMnO4 stain, as well as visualisation at 254 nm and 365 nm.

[3] = TLC precursor-binding assay with C55-P; design: key to C55-P (TLC binding): “+” indicates binding confirmed; “-” indicates no binding; “~” indicates potential binding with absence of precursor band; conditions: for C55-P spot on TLC after incubation with peptide (in words): absence of C55-P spot = potential indicator of binding, KMnO4 staining in Figure S5; for C55-P (TLC binding): peptide 0.5, 1, 2 equiv. with C55-P in Tris·HCl pH 7.5, 50 mM CaCl2, 1 h, silica TLC
Description: as §1

For `CCCCCCCCCC(=O)N[C@@H](Cc1c[nH]c2ccccc12)C(=O)N[C@H](CC(N)=O)C(=O)N[C@@H](CC(=O)O)C(=O)N[C@@H]1C(=O)NCC(=O)N[C@@H](CCCN)C(=O)N[C@@H](CC(=O)O)C(=O)N[C@H](C)C(=O)N[C@@H](CC(=O)O)C(=O)NCC(=O)N[C@H](CO)C(=O)N[C@@H]([C@H](C)CC(=O)O)C(=O)N[C@@H](CC(=O)c2ccccc2N)C(=O)O[C@@H]1C` [Daptomycin, reference compound], the “MIC − Ca^2+” value ([1]; B. subtilis 168, MHB II with 0 mM CaCl2, 5 × 10^5 CFU/mL, 37 °C, 24 h, two-fold dilution series, triplicate) was 16 µg/mL (≈ 9.87 µM), the “decrease in activity in the absence of calcium” value ([1]; B. subtilis 168, MIC without Ca versus with 15 or 100 mM Ca) was 16- to 32 fold and the “Lipid II (TLC binding)” value [2] was “-”. The “C55-P spot on TLC after incubation with peptide (in words)” value (“C55-P spot on TLC after incubation” below) [3] was “a lack of binding” and the “C55-P (TLC binding)” value [3] was “-”.
With `CCCCCCCCCC(=O)NC[C@@H](C)C(=O)NCC(=O)N[C@H](CCC(=O)O)C(=O)N[C@@H](Cc1ccc(O)cc1)C(=O)N[C@@H]1C(=O)N[C@H]([C@H](C)CC)C(=O)N[C@@H](CC(=O)O)C(=O)N[C@@H](CC(=O)O)C(=O)N2CCC[C@H]2C(=O)NCC(=O)N[C@H](CCC(=O)O)C(=O)N[C@@H](CCC(=O)O)C(=O)N(C)CC(=O)O[C@@H]1C` [Peptide C1a] (Decanoyl-[β2hAla(R)]G[dE]YT[dI]DDPG[dE]E[Sar]; ester 5-C) the “MIC + Ca^2+” value ([1]; 168, 24 h) was 128 µg/mL, the “MIC − Ca^2+” value ([1]; 168, 24 h) was 128 µg/mL (≈ 84.4 µM) and the “Lipid II (TLC binding)” value [2] was “-”. The “C55-P (TLC binding)” value [3] was “-”.
With `CCCCCCCCCC(=O)NC[C@@H](C)C(=O)NCC(=O)N[C@H](CCC(=O)O)C(=O)N[C@@H](Cc1ccc(O)cc1)C(=O)N[C@@H]1C(=O)N[C@H]([C@H](C)CC)C(=O)N[C@@H](CC(=O)O)C(=O)N[C@@H](CC(=O)O)C(=O)N2CCC[C@H]2C(=O)NCC(=O)N[C@H](CCC(=O)O)C(=O)N[C@@H](CCC(=O)O)C(=O)N(C)CC(=O)O[C@@H]1C` [Peptide C1b] (Decanoyl-[β2hAla(R)]G[dE]YT[dI]DDPG[dE]E[Sar]; ester 5-C) the “MIC + Ca^2+” value ([1]; 168, 24 h) was 128 µg/mL, the “Lipid II (TLC binding)” value [2] was “-” and the “C55-P spot on TLC after incubation” value [3] was “no longer visible”. For the same compound, the “C55-P (TLC binding)” value [3] was “~”.
In the case of `CCCCCCCCCC(=O)NC[C@@H](C)C(=O)NCC(=O)N[C@H](CCC(=O)O)C(=O)N[C@@H](Cc1ccc(O)cc1)C(=O)N[C@@H]1C(=O)N[C@H]([C@H](C)CC)C(=O)N[C@@H](CC(=O)O)C(=O)N[C@@H](CC(=O)O)C(=O)N2CCC[C@H]2C(=O)NCC(=O)N[C@@H](CCC(=O)O)C(=O)N[C@@H](CCC(=O)O)C(=O)N(C)CC(=O)O[C@@H]1C` [Peptide C2b] (Decanoyl-[β2hAla(R)]G[dE]YT[dI]DDPGEE[Sar]; ester 5-C), the “Lipid II (TLC binding)” value [2] is reported as “-” and the “C55-P spot on TLC after incubation” value [3] is reported as “no longer visible”.
With `CCCCCCCCCC(=O)NC[C@@H](C)C(=O)NCC(=O)N[C@H](CCC(=O)O)C(=O)N[C@@H](Cc1ccc(O)cc1)C(=O)N[C@@H]1C(=O)N[C@H]([C@H](C)CC)C(=O)N[C@@H](CC(=O)O)C(=O)N[C@@H](CC(=O)O)C(=O)N2CCC[C@H]2C(=O)NCC(=O)N[C@@H](CCC(=O)O)C(=O)N[C@@H](CCC(=O)O)C(=O)N(C)CC(=O)O[C@@H]1C` [Peptide C2c] (Decanoyl-[β2hAla(R)]G[dE]YT[dI]DDPGEE[Sar]; ester 5-C) the “Lipid II (TLC binding)” value [2] was “-” and the “C55-P spot on TLC after incubation” value [3] was “no longer visible”.
In the case of `CCCCCCCCCC(=O)NC[C@@H](C)C(=O)NCC(=O)N[C@H](CCC(=O)O)C(=O)N[C@@H](Cc1ccc(O)cc1)C(=O)N[C@@H]1C(=O)N[C@H]([C@H](C)CC)C(=O)N[C@@H](CC(=O)O)C(=O)N[C@@H](CC(=O)O)C(=O)N2CCC[C@H]2C(=O)NCC(=O)N[C@H](CCC(=O)O)C(=O)N[C@@H](CC(=O)O)C(=O)N(C)CC(=O)O[C@@H]1C` [Peptide C7b] (Decanoyl-[β2hAla(R)]G[dE]YT[dI]DDPG[dE]D[Sar]; ester 5-C), the “MIC + Ca^2+” value ([1]; 168, 24 h) is reported as 128 µg/mL.
In the case of Nisin [reference compound], the “binding to lipid II in TLC assay (in words)” value ([2]; lipid II spot on TLC after incubation, PMA staining in Figure S6) is reported as “nisin-lipid II binding; also recorded: Positive binding” and the “Lipid II (TLC binding)” value [2] is reported as “+”.
